In PubChem BioAssay AID720611 (Broad Institute, 2013):

System: SNB-19 viability, CellTiter-Glo ATP luminescence, 8-48 h
Experiment: cytotoxicity in SNB-19 cells – cell-based, CellTiter-Glo ATP luminescence, 8-48 h, dry powder, mechanism study for HRAS target identification, late-stage follow-up (AID 720611)

Compound | AC50 (measured here: 8 h treatment) | AC50 (measured here: 24 h treatment) | AC50 (measured here: 48 h treatment)
C#CCCCC(=O)NCCOCCOCCOc1ccc(N(C(=O)CCl)C(C(=O)NCCc2ccccc2)c2cccs2)cc1Cl (centres undefined) | 5750 nM | 4270 nM | 3600 nM
CC(C)(C)OC(=O)NCCOCCOCCOc1ccc(N(C(=O)CCl)C(C(=O)NCCc2ccccc2)c2cccs2)cc1Cl (centres undefined) | 1410 nM | 2500 nM | 1450 nM
COc1ccc(N(C(=O)CCl)C(C(=O)NCCc2ccccc2)c2cccs2)cc1Cl (centres undefined) | 978 nM | 1300 nM | 1250 nM
